Experimental data reported in patent US5380746A, “Bis-(1H-indol-3-YL)-maleinimide derivatives, processes for the preparation thereof and pharmaceutical compositions containing them” (Goedecke Aktiengesellschaft, priority 1989, dated 1995).
pIC50: −log10 of the molar value.

Legend:
Assay type in all cases: biochemical
protein kinase C = assay: enzyme assay of protein kinase C; settings: read-out: 50% inhibition at a concentration of, enzyme assay of protein kinase C
G-kinase = target: T1, G-kinase (Homo sapiens, UniProt Q13976); assay: inhibition of the G-kinase; settings: read-out: IC values of the inhibition of the G-kinase
T1 sequence (Q13976 1-671): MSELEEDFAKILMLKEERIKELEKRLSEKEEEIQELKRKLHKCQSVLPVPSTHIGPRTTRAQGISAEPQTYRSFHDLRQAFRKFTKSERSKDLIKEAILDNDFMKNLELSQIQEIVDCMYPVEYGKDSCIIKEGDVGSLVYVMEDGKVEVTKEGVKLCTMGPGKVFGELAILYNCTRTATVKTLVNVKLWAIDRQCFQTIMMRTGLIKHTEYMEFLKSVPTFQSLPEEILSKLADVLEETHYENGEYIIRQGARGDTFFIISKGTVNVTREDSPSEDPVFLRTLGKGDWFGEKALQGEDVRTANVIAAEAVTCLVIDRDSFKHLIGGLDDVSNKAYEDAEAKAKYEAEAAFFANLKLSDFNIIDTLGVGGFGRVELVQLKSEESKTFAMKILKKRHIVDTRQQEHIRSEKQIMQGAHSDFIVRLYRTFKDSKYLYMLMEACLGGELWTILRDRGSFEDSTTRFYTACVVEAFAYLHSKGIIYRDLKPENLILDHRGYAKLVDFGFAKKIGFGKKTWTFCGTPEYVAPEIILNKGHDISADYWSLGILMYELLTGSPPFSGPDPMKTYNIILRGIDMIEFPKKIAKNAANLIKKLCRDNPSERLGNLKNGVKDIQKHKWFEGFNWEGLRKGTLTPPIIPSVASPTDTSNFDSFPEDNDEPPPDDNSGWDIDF

MLC-kinase = assay: inhibition of the MLC-kinase; settings: read-out: IC values of the inhibition of the MLC-kinase
A-kinase = A-kinase (Homo sapiens, UniProt P17612); assay: inhibition of the A-kinase; settings: read-out: IC values of the inhibition of the A-kinase

pIC50 (protein kinase C): 6.85
pIC50 (G-kinase): 4.82
pIC50 (MLC-kinase): 5.35
pIC50 (A-kinase): 4.11
Compound: Cn1cc(C2=C(c3c[nH]c4ccccc34)C(=O)NC2=O)c2ccccc21 [Example 1, 2-(1H-Indol-3-yl)-3-(1-methyl-1H-indol-3-yl)maleinimide]
